The values that follow come from patent EP2145538A1 (priority 2008, dated 2010).

“Also recorded” adds a separate entry of the source. Like-named read-outs stand apart in the source and are kept apart here. A value given as a limit tells only on which side of the number the result lay.

Data set [1] concerns Weizenpflanzen. Particulars: in vivo.
Data set [2] concerns the target T1, Endoglukanase II (EG II) (Trichoderma reesei, UniProt P07982).
T1 sequence (P07982 22-418): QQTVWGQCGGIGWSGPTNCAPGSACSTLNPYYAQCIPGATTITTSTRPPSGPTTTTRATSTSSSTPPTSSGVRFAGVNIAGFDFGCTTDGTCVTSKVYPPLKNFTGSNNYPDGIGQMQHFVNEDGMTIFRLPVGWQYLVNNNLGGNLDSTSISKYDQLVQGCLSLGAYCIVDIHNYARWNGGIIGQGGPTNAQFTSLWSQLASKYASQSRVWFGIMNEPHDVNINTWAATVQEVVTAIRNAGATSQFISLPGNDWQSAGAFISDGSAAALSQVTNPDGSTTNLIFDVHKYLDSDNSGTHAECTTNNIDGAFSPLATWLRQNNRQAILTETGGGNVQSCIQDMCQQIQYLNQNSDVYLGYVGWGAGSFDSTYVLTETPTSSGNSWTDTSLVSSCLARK
Particulars: result in words; cited from earlier work.

The target in data set [3] is Amylase aus Aspergillus oryzae (Aspergillus oryzae, UniProt P0C1B3). Description: Amylase activity assay in microtiter plates (dye-labelled starch substrate), commercial enzymes. The class given is biochemical. Conditions: both Aspergillus amylases (35 U/mg Fluka, 200 U/mg Sigma); result in words. The text has this:
(§1) Diese Methode basiert auf folgendem Prinzip:

In data set [4] the target is T2, Cellobiohydrolase I (CBH I) (Trichoderma reesei, UniProt P62694).
T2 sequence (P62694 18-513): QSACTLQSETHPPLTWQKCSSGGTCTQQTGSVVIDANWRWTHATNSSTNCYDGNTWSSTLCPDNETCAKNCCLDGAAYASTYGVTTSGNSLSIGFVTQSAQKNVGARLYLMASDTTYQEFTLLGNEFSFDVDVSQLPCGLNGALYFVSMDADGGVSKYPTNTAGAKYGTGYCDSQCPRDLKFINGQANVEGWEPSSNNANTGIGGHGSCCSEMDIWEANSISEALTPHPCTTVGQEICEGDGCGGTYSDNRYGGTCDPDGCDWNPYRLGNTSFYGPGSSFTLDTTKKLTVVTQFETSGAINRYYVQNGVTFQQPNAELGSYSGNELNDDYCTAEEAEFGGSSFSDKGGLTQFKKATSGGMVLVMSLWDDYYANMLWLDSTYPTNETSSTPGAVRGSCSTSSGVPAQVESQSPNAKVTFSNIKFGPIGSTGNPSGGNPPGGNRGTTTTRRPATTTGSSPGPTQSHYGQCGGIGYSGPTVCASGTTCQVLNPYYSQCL
Conditions: result in words; cited from earlier work.

Data set [5] relates to Amylasen aus Kulturfiltrat (Strohextrakt) von in vitro angezogenem Fusarium graminearum. The class given is biochemical. Conditions: result in words.
In data set [6] the test system is Fusarium graminearum. Format: in vivo. Particulars: for Fusarium Protein Equivalent (µg/g), Mittelwert: above-ground parts; for Fusarium Protein Equivalent (µg/g), Mittelwert / Fusarium Protein Equivalent (µg /g), Mean: 2 weeks after sowing; for Fusarium Protein Equivalent (µg /g), Mean: roots.
Data set [7] concerns Blumeria graminis f. sp. tritici. As to the kind of experiment: Powdery mildew rating on sprayed wheat plants (MOLL et al. 1996). Particulars: 7 dpi; spray treatment at 3-leaf stage; AI-1 and AI-2 1 mg/ml, CI 100 µg/ml; Kontrolle 60. The class given is in vivo. An excerpt:
Nach einer Sprühbehandlung der Weizenpflanzen im 3-Blatt-Stadium und anschließender Inokulation (nach Abtrocknen) mit Mehltau Blumeria graminis f. sp. tritici sind eindeutige Hemmeffekte zu erkennen (Figur 25-27). Eine Bonitur nach MOLL et al. (1996) ergab für den Amylase-Inhibitor AI-1 eine Befallsreduktion von 60% auf 7%, für den Amylase-Inhibitor AI-2 auf 1 % und für den Cellulase-Inhibitor CI auf 10% (Tabelle 3). Tab. 3: Bonitur des Mehltaubefalls (Blumeria graminis f. sp. tritici) nach MOLL et al. (1996) 7 dpi.

Data set [8] has as its system Amylase aus Bacillus sp. Description: Amylase activity assay in microtiter plates (dye-labelled starch substrate), commercial enzyme. Format: biochemical. Particulars: for Hemmung der Enzymaktivität: result in words.
Source text: as §1

Data set [9] concerns the target T3, Humanspeichelamylase (Homo sapiens, UniProt P0DUB6).
T3 construct: purchased Sigma
T3 sequence (P0DUB6 16-511): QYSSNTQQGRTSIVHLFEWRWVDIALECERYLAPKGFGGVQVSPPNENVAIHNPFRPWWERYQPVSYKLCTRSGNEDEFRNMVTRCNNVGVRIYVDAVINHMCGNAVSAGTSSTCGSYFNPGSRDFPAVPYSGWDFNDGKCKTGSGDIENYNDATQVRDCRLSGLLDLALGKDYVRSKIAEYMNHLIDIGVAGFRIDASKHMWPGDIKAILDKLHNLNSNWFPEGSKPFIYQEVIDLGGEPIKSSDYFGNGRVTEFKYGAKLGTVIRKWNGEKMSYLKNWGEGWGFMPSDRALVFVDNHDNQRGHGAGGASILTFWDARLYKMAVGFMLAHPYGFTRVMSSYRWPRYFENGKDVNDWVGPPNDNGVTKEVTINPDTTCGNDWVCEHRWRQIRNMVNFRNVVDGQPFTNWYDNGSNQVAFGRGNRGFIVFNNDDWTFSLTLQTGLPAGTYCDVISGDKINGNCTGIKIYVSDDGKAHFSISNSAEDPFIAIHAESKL
Described as above. The class given is biochemical. Particulars: for Hemmung der Enzymaktivität: result in words.
Source text: as §1

The test system of data set [10] is Fusarium graminearum. The class given is in vivo. Conditions: soil substrate, greenhouse, 4 weeks, both trials; CI 100µg /ml seed treatment; result in words.
The subject of data set [11] is Fusarium graminearum. Description: microbe, parasite or virus in culture. Format: cell-based. Particulars: for Einfluss auf das Wachstum von Fusarium graminearum: Saccharose as sole C source, up to 14 days.
Data set [12] deals with Amylasen von mit F. graminearum infizierten Pflanzen. Format: biochemical, Fusarium graminearum. Particulars: result in words.
Data set [13] deals with Erbsen. Description: Plant tolerance: germination of peas after imbibition in inhibitor solution. Format: in vivo. Particulars: imbibition in a solution of 1 mg/ml; result in words.
[14] abbreviates: infected with F.g. + inhibitor, infected control 1261,2.
[15] abbreviates: Stärke as sole C source, 14 days.

For Na2PdCl6 · 4 H2O [CI], the “Hemmung von Keimung und Pflanzenwachstum” value in data set [1] is “weder der Amylase-Inhibitor AI-1 noch der amylasehemmende Wirkung zeigende Cellulose-Inhibitor die Keimung und das Pflanzenwachstum hemmten”. In addition, the “negativer Effekt auf das Pflanzenwachstum” value in [1] was “keinerlei negativen Effekt auf das Pflanzenwachstum”. Also, the Inhibition result in [2] and in data set [4] was “in starkem Maße zu inhibieren” each time. In addition, the “Hemmung der Enzymaktivität” value in data set [3] was “unbeeinflusst blieben”; in [5], “nicht bzw. nur unwesentlich hemmt”; in [5] (listed as Cellulase-Inhibitor) it was “bei höheren Konzentrationen auch die Amylasen des Fusarium-Kulturfiltrates hemmt; also recorded: unbeeinflusst blieben”; in data set [8], “bei höherer Konzentration hemmte”; in data set [9] it was “bei höherer Konzentration hemmte”; in data set [12] it was “nicht bzw. nur unwesentlich hemmt”. Besides, the “Hemmung der Enzymaktivität” value in data set [12] (listed as Cellulase-Inhibitor) was “unbeeinflusst blieben”. The “Fusarium Protein Equivalent (µg/g), Mittelwert” value in data set [6] (infected with F.g. + inhibitor, infected control 341,44) is listed as 66,34 µg/g; in [6] (not infected (K) + inhibitor) it was 0,04 µg/g. Besides, in data set [6] (folded filter, very high infection pressure, result in words), the “Aussehen der behandelten, infizierten Pflanzen (Fotos)” value is reported as “grüner aus, sind aber im Wuchs doch deutlich reduziert”. Besides, in data set [6] (roots of infected wheat seedlings on folded filter, 2 weeks), the “Reduktion des Befalls der Wurzeln (ELISA)” value is reported as 51%. Besides, the figures for the “Fusarium Protein Equivalent (µg /g), Mean” value in data set [6] (setting [14]) and in [6] (not infected (K) + inhibitor) were 618,9 µg /g and 49,0 µg /g, respectively. In addition, the “Befall (%)” value in [7] was 10%. The “Konzentration, bei der die Amylase total gehemmt wird” value in data set [8] (Bacillus-Amylase) came to 100 µg/mL. For the same molecule, the “Konzentration, bei der die Amylase vollständig / total gehemmt wird” value in data set [9] (Humanamylase (500 U/mg, Sigma)) came out at 25 µg/mL. Also, the “Hemmung des Pilzwachstums” value in data set [10] is “nicht hemmt; also recorded: keinerlei Effekt”; in [11] (Cellulose as C source, 12,5 µg/ml, 14 days, result in words), “deutliche Wachstumsdepression”. For the same molecule, the Wachstumsdepression in data set [11] (Cellulose as C source, ab 50 bis 100 µg/mL, 14 days) was found to be 100%. Also, in data set [11] (Cellulose as sole C source), the “Konzentration, bei der das Wachstum total gehemmt ist” value amounted to 50 µg/mL. The Wachstumsrate reduziert um entry in data set [11] (Cellulose as sole C source, 12,5 µg/ml) is reported as “ca. 50%”. The “Einfluss auf das Wachstum von Fusarium graminearum” value in data set [11] (result in words) is recorded as “nicht gehemmt”. Besides, the “Einfluss auf das Wachstum” value in [11] (Stärke as sole C source, 6,5-12,5 µg/ml, result in words) is reported as “verifizierbare Wachstumsförderung”. The “Konzentration, ab der das Wachstum partiell gehemmt wird” value in [11] (setting [15]) was at least 75 µg/mL. In addition, the “Konzentration, bei der das Wachstum total gehemmt wird” value in data set [11] (setting [15]) is at least 100 µg/mL; in data set [11] (Stärke as sole C source, 14 days, listed as Cellulase-Inhibitor), 100 µg/mL.
`OCCN1C[C@H](O)[C@@H](O)[C@H](O)[C@H]1CO` [AI-2, Miglitol]: in data set [1], the “Einfluss auf das ausgewachsene Blatt” value is “keinen Einfluss auf das ausgewachsene Blatt”. The “Hemmung der Keimung” value in data set [1] and in [13] was “vollständig” throughout. Also, the “Hemmung der Keimung der Weizenpflanzen” value in data set [1] is reported as “so stark hemmte, dass sich Jungpflanzen nicht entwickeln konnten”. Besides, the “Hemmung der Enzymaktivität” value in data set [3] is given as “weder die Humanamylase noch die verwendeten käuflichen Amylasen aus Bakterien bzw. Pilzen hemmt; also recorded: nicht zu hemmen vermochte”; in data set [5], “konnte weder die im Handel erhältlichen Amylasen bzw. Cellulasen der verschiedenen Mikroorganismen noch die von Fusarium graminearum in vitro oder in der Pflanze gebildeten Amylasen inhibieren”; in data set [8] it was “weder die Humanamylase noch die verwendeten käuflichen Amylasen aus Bakterien bzw. Pilzen hemmt; also recorded: nicht zu hemmen vermochte”; in data set [9], “weder die Humanamylase noch die verwendeten käuflichen Amylasen aus Bakterien bzw. Pilzen hemmt; also recorded: nicht zu hemmen vermochte”; in [12], “wirkungslos; also recorded: keine Wirkung; also recorded: konnte weder die im Handel erhältlichen Amylasen bzw. Cellulasen der verschiedenen Mikroorganismen noch die von Fusarium graminearum in vitro oder in der Pflanze gebildeten Amylasen inhibieren”. For the same molecule, the “Fusarium Protein Equivalent (µg /g), Mean” value in [6] (setting [14]) is listed as 813,0 µg /g; in data set [6] (not infected (K) + inhibitor), 7,6 µg /g. Also, in [7], the “Befall (%)” value worked out at 1%. Also, the “Einfluss auf das Wachstum von Fusarium graminearum” value in data set [11] (result in words) was “keinen Einfluss”. Moreover, in data set [11] (Stärke as sole C source, result in words), the “Einfluss auf das Pilzwachstum” value is “keinen Einfluss”. Besides, the “Einfluss auf das Wachstum des Pilzes in vitro” value in data set [11] (result in words) is “keinerlei hemmenden Einfluss”.
